According to ChEMBL document CHEMBL3885861, “Open TG-GATES”:

Organism: Rattus norvegicus
Assay: Open TG-GATES - Regimen: Single
Format: toxicity, organism-based, Sprague-Dawley
Parameters: regimen Single, gender Male, age 6 weeks
Conditions: in vivo, ip, 0.03 mg/kg, route intraperitoneal injection, dose 30 ug/Kg, dose level Low; for APTT / Bas / Eos / Fbg / Hb / Ht / Lym / MCH / MCHC / MCV / Mono / Neu / PT / Plat / RBC / Ret / WBC: tissue Blood; for KIDNEY_L / KIDNEY_R / KIDNEY_TOTAL: tissue Kidney; for LIVER: tissue Liver; for A/G / ALP / ALT / AST / BUN / CRE / Ca / Cl / DBIL / GLC / IP / K / LDH / Na / PL / RALB / TBIL / TC / TG / TP / gamma-GTP: tissue Plasma

## CC(=O)N[C@H]1[C@@H](O[C@@H]2O[C@H](CC(O)[C@H]3O[C@@H](n4ccc(=O)[nH]c4=O)[C@H](O)[C@@H]3O)[C@H](O)[C@H](O)[C@H]2NC(=O)/C=C/CC(C)C)O[C@H](CO)[C@@H](N)[C@@H]1O (some centres not stated) [TUNICAMYCIN]
3 h
  TERMINAL_BW: 222.8 g
  APTT: 22.4 s
  Bas: 0%
  Eos: 0.6%
  Fbg: 302.4 mg/dL
  Hb: 13 g/dL
  Ht: 39.3%
  Lym: 81%
  MCH: 20.5 pg
  MCHC: 33%
  MCV: 62.1 fL
  Mono: 3%
  Neu: 14.4%
  PT: 15.7 s
  Plat: 115.4 x10_4/uL
  RBC: 633.2 x10_4/ul
  Ret: 8.1%
  WBC: 99.9 x10_2/uL
  KIDNEY_L: 1 g
  KIDNEY_R: 1 g
  KIDNEY_TOTAL: 2 g
  LIVER: 10.4 g
  A/G: 1.2
  ALP: 1404.2 IU/L
  ALT: 37.6 IU/L
  AST: 69.6 IU/L
  BUN: 15.4 mg/dL
  CRE: 0.2 mg/dL
  Ca: 10.8 mg/dL
  Cl: 106 meq/L
  DBIL: 0 mg/dL
  GLC: 173.4 mg/dL
  IP: 7.5 mg/dL
  K: 4.5 meq/L
  LDH: 151.2 IU/L
  Na: 140.8 meq/L
  PL: 126 mg/dL
  RALB: 2.9 g/dL
  TBIL: 0.01 mg/dL
  TC: 71.8 mg/dL
  TG: 78.6 mg/dL
  TP: 5.4 g/dL
  gamma-GTP: 1.4 IU/L
6 h
  TERMINAL_BW: 219.6 g
  APTT: 21.8 s
  Bas: 0%
  Eos: 0.4%
  Fbg: 295 mg/dL
  Hb: 13.2 g/dL
  Ht: 39.8%
  Lym: 77.8%
  MCH: 20.9 pg
  MCHC: 33%
  MCV: 63.3 fL
  Mono: 2%
  Neu: 18.6%
  PT: 15.6 s
  Plat: 114.3 x10_4/uL
  RBC: 629.2 x10_4/ul
  Ret: 7.1%
  WBC: 90.7 x10_2/uL
  KIDNEY_L: 1 g
  KIDNEY_R: 1 g
  KIDNEY_TOTAL: 2 g
  LIVER: 9.8 g
  A/G: 1.2
  ALP: 1356.2 IU/L
  ALT: 42.6 IU/L
  AST: 74.6 IU/L
  BUN: 12.6 mg/dL
  CRE: 0.2 mg/dL
  Ca: 10.8 mg/dL
  Cl: 105.2 meq/L
  DBIL: 0 mg/dL
  GLC: 168.2 mg/dL
  IP: 8.9 mg/dL
  K: 4.4 meq/L
  LDH: 157.8 IU/L
  Na: 141.2 meq/L
  PL: 120.6 mg/dL
  RALB: 2.9 g/dL
  TBIL: 0.018 mg/dL
  TC: 69.2 mg/dL
  TG: 57.6 mg/dL
  TP: 5.3 g/dL
  gamma-GTP: 1.2 IU/L
9 h
  TERMINAL_BW: 213.3 g
  APTT: 23.6 s
  Bas: 0%
  Eos: 0.6%
  Fbg: 315.4 mg/dL
  Hb: 13.5 g/dL
  Ht: 41%
  Lym: 83.8%
  MCH: 21 pg
  MCHC: 32.9%
  MCV: 63.8 fL
  Mono: 2%
  Neu: 12.8%
  PT: 15.8 s
  Plat: 112.5 x10_4/uL
  RBC: 643.2 x10_4/ul
  Ret: 7.5%
  WBC: 85.7 x10_2/uL
  KIDNEY_L: 0.9 g
  KIDNEY_R: 1 g
  KIDNEY_TOTAL: 1.9 g
  LIVER: 8.9 g
  A/G: 1.2
  ALP: 1454.8 IU/L
  ALT: 36.4 IU/L
  AST: 71.2 IU/L
  BUN: 12.8 mg/dL
  CRE: 0.1 mg/dL
  Ca: 10.8 mg/dL
  Cl: 106 meq/L
  DBIL: 0 mg/dL
  GLC: 181 mg/dL
  IP: 9.3 mg/dL
  K: 4.4 meq/L
  LDH: 174 IU/L
  Na: 142.2 meq/L
  PL: 129 mg/dL
  RALB: 3 g/dL
  TBIL: 0.01 mg/dL
  TC: 75.4 mg/dL
  TG: 70.4 mg/dL
  TP: 5.5 g/dL
  gamma-GTP: 1 IU/L
24 h
  TERMINAL_BW: 234.5 g
  APTT: 21.3 s
  Bas: 0%
  Eos: 0.8%
  Fbg: 308.6 mg/dL
  Hb: 12.8 g/dL
  Ht: 39.3%
  Lym: 82%
  MCH: 20.1 pg
  MCHC: 32.5%
  MCV: 61.6 fL
  Mono: 2.6%
  Neu: 13.4%
  PT: 15.7 s
  Plat: 114.8 x10_4/uL
  RBC: 637.8 x10_4/ul
  Ret: 7.4%
  WBC: 75.9 x10_2/uL
  KIDNEY_L: 1 g
  KIDNEY_R: 1.1 g
  KIDNEY_TOTAL: 2.1 g
  LIVER: 11.1 g
  A/G: 1.2
  ALP: 1690.8 IU/L
  ALT: 40.4 IU/L
  AST: 67.8 IU/L
  BUN: 16.6 mg/dL
  CRE: 0.1 mg/dL
  Ca: 10.4 mg/dL
  Cl: 105.6 meq/L
  DBIL: 0 mg/dL
  GLC: 183.4 mg/dL
  IP: 7.3 mg/dL
  K: 4.6 meq/L
  LDH: 148 IU/L
  Na: 141.2 meq/L
  PL: 141.6 mg/dL
  RALB: 3 g/dL
  TBIL: 0.006 mg/dL
  TC: 76.4 mg/dL
  TG: 98.6 mg/dL
  TP: 5.6 g/dL
  gamma-GTP: 1.4 IU/L
